19 compounds from paper PMC4912613, “A broad analysis of resistance development in the malaria parasite” (Nature Communications, 2016) can be followed below.

Assay [1] has as its system Stage 5 gametocytes from P. falciparum NF54. The experiment in a line: Late-stage (stage V) gametocyte survival assay, MitoTracker. Type of assay: cell-based, Plasmodium falciparum. The following applies: for EC50: Plasmodium falciparum, P. falciparum NF54, 72 h, read-out: Stage 5 Gametocyte EC50; for EC50 fold shift compared to asexual stage: Stage 5 Gametocyte EC50: gametocyte EC50 / 3D7 EC50. Here is the method:
The second assay was a late-stage (stage V) gametocyte survival assay, which predicts transmission-blocking activity. […] Positive and negative control compounds included puromycin (0.61±0.11 μM) and atovaquone (> 12.50 μM), respectively.
To test sexual-stage activity, compounds were tested against late-stage gametocytes using a MitoTracker fluorescent-based assay. Specifically, synchronized stage V gametocytes were incubated with compound for 72 h. MitoTracker Red CMXRos (Life Technologies) was added to each well (final concentration: 500 nM) together with saponin to lyse the RBCs. Each plate was then imaged with an Operetta High Content Imaging System (Perkin Elmer) for fluorescence (590–640 nm). Varying levels of compound concentration were used (1.25 μM or 12.5 μM) due to the stock concentration supplied.
The gametocytocidal activity was measured using high-content image analysis software (Harmony, Perkin Elmer). The readout was based on number of metabolically active gametocytes per well.

Assay [2] concerns ATQ-R5 (cytb F267V, parent 3D7). As to the kind of experiment: Cross-resistance EC50 assay, ATQ-R5. The format is cell-based, Plasmodium falciparum. Particulars: Plasmodium falciparum, 3D7; SYBR green 72 hour assay; asynchronized parasites; 96-well or 1536-well format; ATQ-R5. The source says: (§1) To evaluate potential overlapping activity against known antimalarial drug targets, we performed dose-response studies with each compound against our assembled set of drug-resistant lines and their corresponding parents, in an asexual blood stage proliferation assay (Table 1). Comparisons were made to the drug-sensitive strain 3D7 when a parent was unavailable (TM90C2A, W2 and Dd2). As laboratories conducted EC50 assays with different strains and protocols, all comparisons were made between assays from the same laboratory and under the same assay conditions. Compounds displaying >5-fold EC50 shifts relative to the parent or sensitive strain were flagged as having potentially non-novel targets. Average fold shifts per strain ranged from 0.82 to 2.34, with a median of 1.23 indicating there was not common resistance to any one resistant clone. No resistance patterns were observed when classifying the compounds based on chemical structure, but this was not surprising given the diversity of compounds chosen. On the other hand, given that these confirmed compounds were derived from larger unconfirmed hit lists to which some filtration criteria may have been applied (for example, elimination of obvious dihydrofolate reductase inhibitors[32]), some[10][11][12][13] pre-existing bias may exist in the set. […]
(§2) Alternatively, a SYBR Green-based proliferation approach was used for the 72-h assay, as previously described. Briefly, a culture of either synchronized or asynchronous parasitized RBCs (0.3% parasitemia and 4% haematocrit) in screening medium (identical to supplemented medium above except no serum was added) was exposed to serial drug dilutions. Plates were incubated at 37 °C and gassed with 93% N2, 4% CO2 and 3% O2 for 72 h. Following incubation, 10 × SYBR Green I (Invitrogen; supplied in 10,000 × concentration) in lysis buffer ([…], 5 mM EDTA, 0.16% Saponin wt per vol and 1.6% Triton X vol per vol) was added to the wells and the plates were incubated overnight at room temperature before plate reading. EC50 assays were repeated three times, taking the average EC50 value from each assay set, and removing any outliers using a single iteration of Grubbs' test, eliminating values with z-scores above the critical z-value (α=0.05). The raw EC50 values for synchronized parasites assayed in a 384-well format are listed in Supplementary Data 4. The raw EC50 values for asynchronous parasites assayed in a 96 or 1536-well format are listed in Supplementary Data 5.
(§3) EC50 values for each strain were compared with those of the corresponding parent strain to determine fold-shift changes and identify resistance. To minimize the cause variance between assays, all comparisons were conducted between strains assayed under identical conditions. A one-way ANOVA followed by a Dunnet's post-test was conducted in GraphPad Prism to identify significant changes between the parent and resistant strain.

The subject of assay [3] is GNF156R (PfCARL L830V, S1076I and M81I, parent Dd2). The experiment in a line: Cross-resistance EC50 assay, GNF156R. Type of assay: cell-based. Particulars: Plasmodium falciparum, SYBR green 72 hour assay, asynchronized parasites, 96-well or 1536-well format.
From the text: as §1, §2, §3

The test system of assay [4] is TM90C2A (DHFR, folate pathway; compared with 3D7). The experiment in a line: Cross-resistance EC50 assay, TM90C2A. Type of assay: cell-based. The following applies: Plasmodium falciparum, 48 h, read-out: TM90C2A (3D7 Parent) Average EC50.
From the text: To evaluate potential overlapping activity against known antimalarial drug targets, we performed dose-response studies with each compound against our assembled set of drug-resistant lines and their corresponding parents, in an asexual blood stage proliferation assay (Table 1). Comparisons were made to the drug-sensitive strain 3D7 when a parent was unavailable (TM90C2A, W2 and Dd2). As laboratories conducted EC50 assays with different strains and protocols, all comparisons were made between assays from the same laboratory and under the same assay conditions. Compounds displaying >5-fold EC50 shifts relative to the parent or sensitive strain were flagged as having potentially non-novel targets. Average fold shifts per strain ranged from 0.82 to 2.34, with a median of 1.23 indicating there was not common resistance to any one resistant clone. No resistance patterns were observed when classifying the compounds based on chemical structure, but this was not surprising given the diversity of compounds chosen. On the other hand, given that these confirmed compounds were derived from larger unconfirmed hit lists to which some filtration criteria may have been applied (for example, elimination of obvious dihydrofolate reductase inhibitors[32]), some[10][11][12][13] pre-existing bias may exist in the set.
The 48-h assay was carried out in a 96-well format following standard methods using the ^3H-hypoxanthine incorporation assay. The raw EC50 values corresponding to this assay can be found in Supplementary Data 3. Briefly, this assay relies on the parasite incorporation of labelled hypoxanthine that is proportional to P. falciparum growth. A culture of parasitized RBCs (0.5% parasitemia with a percentage of ring stage higher than 70% of total parasitemia, 2.0% haematocrit) in RPMI-1640, […] and 5 μM hypoxanthine was exposed to drug serial dilutions. Plates were incubated for 24 h at 37 °C, 5% CO2, 5% O2 and 90% N2. After 24 h of incubation, ^3H-hypoxanthine was added and plates were incubated for an additional 24-h period. After that, parasites were harvested on a glass fibre filter using a TOMTEC Cell Harvester 96. Filters were dried and melt-on scintillator sheets were used to determine the incorporation of ^3H-hypoxanthine. Radioactivity was measured using a microbeta counter. Data were normalized using the incorporation of the positive (parasitized RBCs without drug) and negative (same culture with artesunate at 2 μM) controls. All assays were conducted in triplicate using three independently grown cultures, and EC50 values were determined using the XLfit add-in module for Excel (version 2.3.1) from Grafit (version 5.3.1.3), where parameter h is the assay hill slope, x is the compound concentration and y is the inhibition of growth effect. The XLfit equation is: […]
as §3

With `COc1ccc(N2CCN(C(CNC(=O)C3CCCCC3)c3ccc4c(c3)OCO4)CC2)cc1` (centres unmarked) [MMV019662], the EC50 (usually the concentration that produces a half-maximal response) in assay [1] turned out to be 3680 nM; in assay [2], 0.596 µM; in assay [3], 0.405 µM; in assay [4], 209 nM. For the same compound, in assay [1], the “EC50 fold shift compared to asexual stage: Stage 5 Gametocyte EC50” value (“EC50 fold shift” for short) worked out at 10.82.

With `COc1ccc(-c2nc(NC(=O)Cc3ccc4c(c3)OCCO4)sc2C)cc1` [MMV019719], the concentration for a half-maximal effect (EC50) came to 5520 nM in assay [1], 0.213 µM in assay [2], 0.347 µM in assay [3] and 210 nM in assay [4]. In assay [1], the “EC50 fold shift” value came to 33.66.

For `Cc1ccc(Oc2ncccc2C(=O)Cc2cccc3cccnc23)c(C)c1` [MMV020746], the EC50 in assay [1] was 3790 nM; in assay [2], 1.49 µM; in assay [3] it was 3.38 µM; in assay [4] it was 201 nM. For the same compound, in assay [1], the “EC50 fold shift” value is 49.87.

Turning to `COc1cc(-c2nc(-c3ccccc3)c(-c3ccccc3)[nH]2)cc(OC)c1O` [MMV020750], the EC50 was above 1250 nM in assay [1], 0.873 µM in assay [2], 0.663 µM in assay [3] and 674 nM in assay [4]. For the same compound, the “EC50 fold shift” value in assay [1] is listed as above 3.6.

For `CCCCCCCN(Cc1ccc(OC(C)(C)C(=O)OCC)cc1)C(=O)Nc1ccc(Cl)cc1OCC` [MMV021735], the EC50 was above 11600 nM in assay [1], 0.062 µM in assay [2], 1.08 µM in assay [3] and 891 nM in assay [4]. Also, the “EC50 fold shift” value in assay [1] was above 32.

As to `CN(C)Cc1ccc(-c2cc3c(-c4ccc(CN(C)C)cc4)ccnc3[nH]2)cc1.O=C(O)C(F)(F)F` [MMV022224], the EC50 in assay [1] is 2330 nM; in assay [2], 0.358 µM; in assay [3] it was 0.429 µM; in assay [4], 738 nM.

On to `Nc1ncc(-c2cn[nH]c2)cc1-c1nc2ccc(F)cc2[nH]1` [MMV023367], for which the EC50 worked out at 6680 nM in assay [1], 1.53 µM in assay [2], 2.54 µM in assay [3] and 445 nM in assay [4]. The “EC50 fold shift” value in assay [1] was 22.12.

As for `CN(C)S(=O)(=O)c1cc(-c2ccc3nccc(-c4cccc(S(N)(=O)=O)c4)c3c2)cnc1N` [MMV024038], the EC50 in assay [1] amounted to 317 nM; in assay [2], 0.878 µM; in assay [3], 0.861 µM; in assay [4] it was 194 nM. The “EC50 fold shift” value in assay [1] stood at 1.39.

`Cc1ccc(S(=O)(=O)n2cc(-c3ccnc(N)c3)c3cc(Br)cnc32)cc1` [MMV024114]: the EC50 in assay [1] was above 12500 nM; in assay [2], 1.72 µM; in assay [3] it was 2.9 µM; in assay [4], 1050 nM. For the same compound, the “EC50 fold shift” value in assay [1] is on record as above 47.

On to `CNCc1ccc2nc(-c3coc(Cc4cc(Cl)ccc4OCC(C)C)n3)[nH]c2c1.Cl.Cl` [MMV026596], for which the EC50 in assay [1] turned out to be 6350 nM; in assay [2], 0.376 µM; in assay [3] it was 0.414 µM; in assay [4], 267 nM. Further, the “EC50 fold shift” value in assay [1] was 18.35.

With `COc1cc(-c2nc(-c3ccccc3)c(-c3ccccc3)[nH]2)ccc1OCCN(C)C` [MMV027496], the EC50 in assay [1] was above 12500 nM; in assay [2], 0.302 µM; in assay [3], 1.8 µM; in assay [4], 300 nM. Moreover, the “EC50 fold shift” value in assay [1] was above 112.

In the case of `Cc1nc2ccc3ccc(CNc4ccc(C(=O)CC(CCC(=O)O)C(=O)O)cc4)cc3c2c(=O)[nH]1.Cl` (centres unmarked) [MMV027634], the EC50 in assay [1] was above 12500 nM; in assay [2] it was 0.13 µM; in assay [3], 0.229 µM; in assay [4] it was 64 nM. In assay [1], the “EC50 fold shift” value was above 543.

Turning to `CC(C)c1cccc(C(NC(=O)C2Cc3ccccc3CN2C(=O)c2cccc(N3CCOCC3)c2)C2CCCC2)c1` (centres unmarked) [MMV028038], the EC50 in assay [1] amounted to 1180 nM; in assay [2] it was 0.839 µM; in assay [3] it was 0.654 µM; in assay [4], 287 nM. Besides, in assay [1], the “EC50 fold shift” value turned out to be 2.19.

On to `O=C(NCC(CCCN1CCC(c2c[nH]c3ccccc23)CC1)c1ccccc1)Nc1ccc(Cl)c(Cl)c1` (centres unmarked) [MMV029272], for which the EC50 in assay [1] was 2230 nM; in assay [2], 4.49 µM; in assay [3], 0.332 µM; in assay [4] it was 415 nM. The “EC50 fold shift” value in assay [1] was 16.40.

For `CC(C)(C)OC(=O)N1CCN(c2ccccc2NC(=O)c2cccc(C(F)(F)F)c2Oc2ccc(F)cc2)CC1` [MMV030666], the EC50 in assay [1] was 993 nM; in assay [2], 0.251 µM; in assay [3], 0.364 µM; in assay [4] it was 544 nM. Moreover, the “EC50 fold shift” value in assay [1] amounted to 2.04.

Take `CC(NCc1ccccc1)c1cc(Cl)ccc1O` (centres unmarked) [MMV665789]: the EC50 was above 1250 nM in assay [1], 0.29 µM in assay [2], 0.681 µM in assay [3] and 1480 nM in assay [4]. The “EC50 fold shift” value in assay [1] was above 1.

In the case of `FC(F)(F)c1cccc(Nc2nc3ccccc3nc2Nc2cccc(C(F)(F)F)c2)c1` [MMV665794], the EC50 in assay [1] was 836 nM; in assay [2], 0.381 µM; in assay [3], 0.135 µM; in assay [4] it was 73 nM.

`O=C(Nc1ccc(Cl)c(Cl)c1)Nc1ccc(Cl)c(Cl)c1` [MMV665852]: the EC50 in assay [1] was above 1250 nM; in assay [2], 2.71 µM; in assay [3], 0.75 µM; in assay [4] it was 566 nM.

For the compound `OC(CNC1CCCCC1)Cn1c2ccc(I)cc2c2cc(I)ccc21` (centres unmarked) [MMV665882], the EC50 in assay [1] amounted to 323 nM; in assay [2], 0.026 µM; in assay [3], 0.068 µM; in assay [4] it was 207 nM. In assay [1], the “EC50 fold shift” value worked out at 4.44.
